Molecules are shown by their SMILES.

For this experiment, the target named is ER (Homo sapiens (Human), UniProt P03372). Nature of the experiment: Western blot analysis (Compounds B1-B278). Type of experiment: cell-based. The note with it: ER degradation by traditional Western blot; DC50 classes. In a few lines: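 Relative target-protein levels come from densitometry of immunoblots, normalized to GAPDH. Lysates from treated cells were prepared in RIPA buffer (pH 7.6) containing protease inhibitors, and equal protein amounts, checked by BCA, were separated on 10% gels and blotted onto PVDF.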
Chain of ER (P03372 whole entry): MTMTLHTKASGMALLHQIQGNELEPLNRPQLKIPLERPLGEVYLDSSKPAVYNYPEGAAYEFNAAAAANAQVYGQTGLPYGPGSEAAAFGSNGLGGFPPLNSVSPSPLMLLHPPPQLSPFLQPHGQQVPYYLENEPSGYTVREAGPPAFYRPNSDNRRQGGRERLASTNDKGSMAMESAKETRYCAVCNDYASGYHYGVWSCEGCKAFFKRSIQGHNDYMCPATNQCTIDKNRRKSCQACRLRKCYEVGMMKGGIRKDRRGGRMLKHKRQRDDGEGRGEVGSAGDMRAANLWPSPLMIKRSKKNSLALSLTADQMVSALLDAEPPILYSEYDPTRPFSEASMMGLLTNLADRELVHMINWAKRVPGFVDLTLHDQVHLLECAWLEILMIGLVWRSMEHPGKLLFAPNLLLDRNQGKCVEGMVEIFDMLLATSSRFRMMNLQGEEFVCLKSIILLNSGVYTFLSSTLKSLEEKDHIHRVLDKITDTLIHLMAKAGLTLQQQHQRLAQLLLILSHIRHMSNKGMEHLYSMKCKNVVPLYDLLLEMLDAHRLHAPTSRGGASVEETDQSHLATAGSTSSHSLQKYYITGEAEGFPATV
With `C[C@@H]1Cc2c([nH]c3ccccc23)[C@@H](c2c(F)cc(N3CCC(C(=O)N4CC(CN5Cc6cc7c(cc6C5)C(=O)N(C5CCC(=O)NC5=O)C7=O)C4)CC3)cc2F)N1CC(F)F` (stereo partly drawn) [Compound B207, 6-((1-(1-(4-((1R,3R)-2-(2,2-difluoroethyl)-3-methyl-2,3,4,9-tetrahydro-1H-pyrido[3,4-b]indol-1-yl)-3,5-difluorophenyl)piperidine-4-carbonyl)azetidin-3-yl)methyl)-2-(2,6-dioxopiperidin-3-yl)-6,7-dihydropyrrolo[3,4-f]isoindole-1,3(2H,5H)-dione], the “Traditional Western Degradation Potency” value is given as “B (“B”: 10-100 nM)”.

Regarding `C[C@@H]1Cc2c([nH]c3ccccc23)[C@@H](c2c(F)cc(N3CCC(C(=O)N4CC(N5Cc6cc7c(cc6C5)C(=O)N(C5CCC(=O)NC5=O)C7=O)C4)CC3)cc2F)N1CC(F)F` (stereo partly drawn) [Compound B208, 6-(1-(1-(4-((1R,3R)-2-(2,2-difluoroethyl)-3-methyl-2,3,4,9-tetrahydro-1H-pyrido[3,4-b]indol-1-yl)-3,5-difluorophenyl)piperidine-4-carbonyl)azetidin-3-yl)-2-(2,6-dioxopiperidin-3-yl)-6,7-dihydropyrrolo[3,4-f]isoindole-1,3(2H,5H)-dione], the “Traditional Western Degradation Potency” value is on record as “C (“C”: >100 nM)”.

Regarding `C[C@@H]1Cc2c([nH]c3ccccc23)[C@@H](c2c(F)cc(N3CC(C(=O)N4CCC(N5Cc6cc7c(cc6C5)C(=O)N(C5CCC(=O)NC5=O)C7=O)CC4)C3)cc2F)N1CC(F)F` (stereo partly drawn) [Compound B209, 6-(1-(1-(4-((1R,3R)-2-(2,2-difluoroethyl)-3-methyl-2,3,4,9-tetrahydro-1H-pyrido[3,4-b]indol-1-yl)-3,5-difluorophenyl)azetidine-3-carbonyl)piperidin-4-yl)-2-(2,6-dioxopiperidin-3-yl)-6,7-dihydropyrrolo[3,4-f]isoindole-1,3(2H,5H)-dione], the “Traditional Western Degradation Potency” value was “C (“C”: >100 nM)”.

Regarding `C[C@@H]1Cc2c([nH]c3ccccc23)[C@@H](c2c(F)cc(N3CC(C(=O)N4CCC(CN5Cc6cc7c(cc6C5)C(=O)N(C5CCC(=O)NC5=O)C7=O)CC4)C3)cc2F)N1CC(F)F` (stereo partly drawn) [Compound B210, 6-((1-(1-(4-((1R,3R)-2-(2,2-difluoroethyl)-3-methyl-2,3,4,9-tetrahydro-1H-pyrido[3,4-b]indol-1-yl)-3,5-difluorophenyl)azetidine-3-carbonyl)piperidin-4-yl)methyl)-2-(2,6-dioxopiperidin-3-yl)-6,7-dihydropyrrolo[3,4-f]isoindole-1,3(2H,5H)-dione], the “Traditional Western Degradation Potency” value is on record as “C (“C”: >100 nM)”.

In the case of `C[C@@H]1Cc2c([nH]c3ccccc23)[C@@H](c2c(F)cc(N3CCC(CN4CCC(C(=O)N5Cc6cc7c(cc6C5)C(=O)N(C5CCC(=O)NC5=O)C7=O)CC4)CC3)cc2F)N1CC(F)F` (stereo partly drawn) [Compound B211, 6-(1-((1-(4-((1R,3R)-2-(2,2-difluoroethyl)-3-methyl-2,3,4,9-tetrahydro-1H-pyrido[3,4-b]indol-1-yl)-3,5-difluorophenyl)piperidin-4-yl)methyl)piperidine-4-carbonyl)-2-(2,6-dioxopiperidin-3-yl)-6,7-dihydropyrrolo[3,4-f]isoindole-1,3(2H,5H)-dione], the “Traditional Western Degradation Potency” value is “C (“C”: >100 nM)”.

Regarding `C[C@@H]1Cc2c([nH]c3ccccc23)[C@@H](c2c(F)cc(N3CCC(CN4CC(C(=O)N5Cc6cc7c(cc6C5)C(=O)N(C5CCC(=O)NC5=O)C7=O)C4)CC3)cc2F)N1CC(F)F` (stereo partly drawn) [Compound B212, 6-(1-((1-(4-((1R,3R)-2-(2,2-difluoroethyl)-3-methyl-2,3,4,9-tetrahydro-1H-pyrido[3,4-b]indol-1-yl)-3,5-difluorophenyl)piperidin-4-yl)methyl)azetidine-3-carbonyl)-2-(2,6-dioxopiperidin-3-yl)-6,7-dihydropyrrolo[3,4-f]isoindole-1,3(2H,5H)-dione], the “Traditional Western Degradation Potency” value is “C (“C”: >100 nM)”.

Regarding `C[C@@H]1Cc2c([nH]c3ccccc23)[C@@H](c2c(F)cc(N3CCC(CN4CCC(N5Cc6cc7c(cc6C5)C(=O)N(C5CCC(=O)NC5=O)C7=O)CC4)CC3)cc2F)N1CC(F)F` (stereo partly drawn) [Compound B213, 6-(1-((1-(4-((1R,3R)-2-(2,2-difluoroethyl)-3-methyl-2,3,4,9-tetrahydro-1H-pyrido[3,4-b]indol-1-yl)-3,5-difluorophenyl)piperidin-4-yl)methyl)piperidin-4-yl)-2-(2,6-dioxopiperidin-3-yl)-6,7-dihydropyrrolo[3,4-f]isoindole-1,3(2H,5H)-dione], the “Traditional Western Degradation Potency” value is “A (“A”: <10 nM)”.

On to `C[C@@H]1Cc2c([nH]c3ccccc23)[C@@H](c2c(F)cc(N3CCC(C(=O)N4CCC(N5Cc6cc7c(cc6C5)C(=O)N(C5CCC(=O)NC5=O)C7=O)CC4)CC3)cc2F)N1CC(C)(F)F` (stereo partly drawn) [Compound B214, 6-(1-(1-(4-((1R,3R)-2-(2,2-difluoropropyl)-3-methyl-2,3,4,9-tetrahydro-1H-pyrido[3,4-b]indol-1-yl)-3,5-difluorophenyl)piperidine-4-carbonyl)piperidin-4-yl)-2-(2,6-dioxopiperidin-3-yl)-6,7-dihydropyrrolo[3,4-f]isoindole-1,3(2H,5H)-dione], for which the “Traditional Western Degradation Potency” value is reported as “A (“A”: <10 nM)”.

`C[C@@H]1Cc2c([nH]c3ccccc23)[C@@H](c2c(F)cc(N3CCC4(CCN(C(=O)CN5Cc6cc7c(cc6C5)C(=O)N(C5CCC(=O)NC5=O)C7=O)CC4)CC3)cc2F)N1CC(C)(F)F` (stereo partly drawn) [Compound B215, 6-(2-(9-(4-((1R,3R)-2-(2,2-difluoropropyl)-3-methyl-2,3,4,9-tetrahydro-1H-pyrido[3,4-b]indol-1-yl)-3,5-difluorophenyl)-3,9-diazaspiro[5.5]undecan-3-yl)-2-oxoethyl)-2-(2,6-dioxopiperidin-3-yl)-6,7-dihydropyrrolo[3,4-f]isoindole-1,3(2H,5H)-dione]: the “Traditional Western Degradation Potency” value is “A (“A”: <10 nM)”.

Turning to `C[C@@H]1Cc2c([nH]c3ccccc23)[C@@H](c2cnc(N3CCC4(CCN(C(=O)CN5Cc6cc7c(cc6C5)C(=O)N(C5CCC(=O)NC5=O)C7=O)CC4)CC3)nc2)N1CC(F)(F)F` (stereo partly drawn) [Compound B216, 2-(2,6-dioxopiperidin-3-yl)-6-(2-(9-(5-((1R,3R)-3-methyl-2-(2,2,2-trifluoroethyl)-2,3,4,9-tetrahydro-1H-pyrido[3,4-b]indol-1-yl)pyrimidin-2-yl)-3,9-diazaspiro[5.5]undecan-3-yl)-2-oxoethyl)-6,7-dihydropyrrolo[3,4-f]isoindole-1,3(2H,5H)-dione], the “Traditional Western Degradation Potency” value is recorded as “A (“A”: <10 nM)”.

With `C[C@@H]1Cc2c([nH]c3ccccc23)[C@@H](c2cnc(N3CCC4(CC3)CN(C(=O)CN3Cc5cc6c(cc5C3)C(=O)N(C3CCC(=O)NC3=O)C6=O)C4)nc2)N1CC(F)(F)F` (stereo partly drawn) [Compound B217, 2-(2,6-dioxopiperidin-3-yl)-6-(2-(7-(5-((1R,3R)-3-methyl-2-(2,2,2-trifluoroethyl)-2,3,4,9-tetrahydro-1H-pyrido[3,4-b]indol-1-yl)pyrimidin-2-yl)-2,7-diazaspiro[3.5]nonan-2-yl)-2-oxoethyl)-6,7-dihydropyrrolo[3,4-f]isoindole-1,3(2H,5H)-dione], the “Traditional Western Degradation Potency” value is given as “A (“A”: <10 nM)”.

In the case of `C[C@@H]1Cc2c([nH]c3ccccc23)[C@@H](c2cnc(N3CCC(CN4CCC(N5Cc6cc7c(cc6C5)C(=O)N(C5CCC(=O)NC5=O)C7=O)CC4)CC3)nc2)N1CC(F)(F)F` (stereo partly drawn) [Compound B218, 2-(2,6-dioxopiperidin-3-yl)-6-(1-((1-(5-((1R,3R)-3-methyl-2-(2,2,2-trifluoroethyl)-2,3,4,9-tetrahydro-1H-pyrido[3,4-b]indol-1-yl)pyrimidin-2-yl)piperidin-4-yl)methyl)piperidin-4-yl)-6,7-dihydropyrrolo[3,4-f]isoindole-1,3(2H,5H)-dione], the “Traditional Western Degradation Potency” value is given as “B (“B”: 10-100 nM)”.

Regarding `C[C@@H]1Cc2c([nH]c3ccccc23)[C@@H](c2cnc(N3CCC(C(=O)N4CCC(N5Cc6cc7c(cc6C5)C(=O)N(C5CCC(=O)NC5=O)C7=O)CC4)CC3)nc2)N1CC(F)(F)F` (stereo partly drawn) [Compound B219, 2-(2,6-dioxopiperidin-3-yl)-6-(1-(1-(5-((1R,3R)-3-methyl-2-(2,2,2-trifluoroethyl)-2,3,4,9-tetrahydro-1H-pyrido[3,4-b]indol-1-yl)pyrimidin-2-yl)piperidine-4-carbonyl)piperidin-4-yl)-6,7-dihydropyrrolo[3,4-f]isoindole-1,3(2H,5H)-dione], the “Traditional Western Degradation Potency” value was “A (“A”: <10 nM)”.

Turning to `C[C@@H]1Cc2c([nH]c3ccccc23)[C@@H](c2cnc(N3CCC4(CCN(C(=O)CN5Cc6cc7c(cc6C5)C(=O)N(C5CCC(=O)NC5=O)C7=O)CC4)CC3)nc2)N1CC(F)F` (stereo partly drawn) [Compound B220, 6-(2-(9-(5-((1R,3R)-2-(2,2-difluoroethyl)-3-methyl-2,3,4,9-tetrahydro-1H-pyrido[3,4-b]indol-1-yl)pyrimidin-2-yl)-3,9-diazaspiro[5.5]undecan-3-yl)-2-oxoethyl)-2-(2,6-dioxopiperidin-3-yl)-6,7-dihydropyrrolo[3,4-f]isoindole-1,3(2H,5H)-dione], the “Traditional Western Degradation Potency” value was “A (“A”: <10 nM)”.

As for `C[C@@H]1Cc2c([nH]c3ccccc23)[C@@H](c2cnc(N3CCC4(CC3)CN(C(=O)CN3Cc5cc6c(cc5C3)C(=O)N(C3CCC(=O)NC3=O)C6=O)C4)nc2)N1CC(F)F` (stereo partly drawn) [Compound B221, 6-(2-(7-(5-((1R,3R)-2-(2,2-difluoroethyl)-3-methyl-2,3,4,9-tetrahydro-1H-pyrido[3,4-b]indol-1-yl)pyrimidin-2-yl)-2,7-diazaspiro[3.5]nonan-2-yl)-2-oxoethyl)-2-(2,6-dioxopiperidin-3-yl)-6,7-dihydropyrrolo[3,4-f]isoindole-1,3(2H,5H)-dione], the “Traditional Western Degradation Potency” value is listed as “A (“A”: <10 nM)”.

The values are drawn from patent US20260007681A1, “INDOLE DERIVATIVES AS ESTROGEN RECEPTOR DEGRADERS” (REGENTS OF THE UNIVERSITY OF MICHIGAN, priority 2022, published 2026).
